In general, IC50 refers to the midpoint of a concentration-inhibition curve.

Read-outs that look alike come from different tables or passages of the source. *1 amine or outer side, *2 acyl side, *3 side chain or, on linkers, in order; H or OH if unused. Where a SMILES comes first, the peptide text is derived from it. Bridges are numbered along the chain shown (N, C = ends). [ ]: non-standard residue; d: D form. The star is where a group is joined. Phenylsulfonyl(4-anisamido) = COc1ccc(C(=O)Nc2ccc(S(=O)(=O)*)cc2)cc1; Benzoyl(4-(4-EtNHCO-PhO)) = CCNC(=O)c1ccc(Oc2ccc(C(=O)*)cc2)cc1; Benzoyl(4-O-C6H4-4-CONHMe) = CNC(=O)c1ccc(Oc2ccc(C(=O)*)cc2)cc1; Benzoyl(4-OPh(4-CONH2)) = NC(=O)c1ccc(Oc2ccc(C(=O)*)cc2)cc1; Benzenesulfonyl(4-OPh) = O=S(=O)(c1ccc(Oc2ccccc2)cc1)*; X3 = O=C(Nc1ccc(S(=O)(=O)*)cc1)c1ccc(OC2CC2)cc1; X15 = CC(=O)c1ccc(-c2ccc(S(=O)(=O)*)cc2)cc1; Benzoyl(4-OPh) = O=C(c1ccc(Oc2ccccc2)cc1)*; d(γGlu) = O=C(O)[C@@H](CCC(=O)[*:2])N[*:1]; d(βAsp) = O=C(O)[C@@H](CC(=O)[*:2])N[*:1]; X13 = Cc1ccc(C#Cc2ccc(S(=O)(=O)*)s2)cc1; NMeF = CN[C@@H](Cc1ccccc1)C(=O)O; NMeGABA = CN(CCCC(=O)[*:2])[*:1]; NMeI = CC[C@H](C)[C@H](NC)C(=O)O; NMeE = CN[C@@H](CCC(=O)O)C(=O)O; NMeD = CN[C@@H](CC(=O)O)C(=O)O; NMeN = CN[C@@H](CC(N)=O)C(=O)O; NMeM = CN[C@@H](CCSC)C(=O)O; NMeV = CN[C@H](C(=O)O)C(C)C; β3hP = O=C(O)C[C@@H]1CCCN1; NMeA = CN[C@@H](C)C(=O)O; Orn = NCCC[C@H](N)C(=O)O; Dab = NCC[C@H](N)C(=O)O; X18 = NC(=O)[C@H](N)CN*; Dap = NC[C@H](N)C(=O)O; Ahx = NCCCCCC(=O)O; Ava = NCCCCC(=O)O; GABA = NCCCC(=O)O

What all share (assay type): biochemical
The target in one assay is human MMP12 (Homo sapiens, UniProt P39900). The experiment in a line: Inhibitory effects on human MMP12, enzyme assay. The note with it: Test Example 7; read-out: Human MMP12, IC50.
A further assay concerns the target T1, MMP2 (Homo sapiens, UniProt P08253).
T1 sequence (P08253 110-660): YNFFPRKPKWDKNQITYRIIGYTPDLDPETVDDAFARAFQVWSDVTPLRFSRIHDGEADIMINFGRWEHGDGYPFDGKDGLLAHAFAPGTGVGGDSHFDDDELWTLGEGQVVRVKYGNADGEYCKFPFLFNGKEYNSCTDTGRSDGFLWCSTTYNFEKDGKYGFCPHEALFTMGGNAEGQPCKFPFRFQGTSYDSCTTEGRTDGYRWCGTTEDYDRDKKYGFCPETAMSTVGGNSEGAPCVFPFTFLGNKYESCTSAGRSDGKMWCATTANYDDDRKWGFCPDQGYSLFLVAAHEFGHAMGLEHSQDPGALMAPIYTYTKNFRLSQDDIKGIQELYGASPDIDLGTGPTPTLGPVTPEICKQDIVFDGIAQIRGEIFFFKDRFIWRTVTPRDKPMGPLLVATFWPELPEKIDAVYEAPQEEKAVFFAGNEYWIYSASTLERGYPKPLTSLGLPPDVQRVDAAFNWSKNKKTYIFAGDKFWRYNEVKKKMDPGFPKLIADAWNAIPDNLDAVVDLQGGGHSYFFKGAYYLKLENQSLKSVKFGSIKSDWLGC
The experiment in a line: Inhibitory effects on human MMP2 (Method 1), enzyme assay with MOCAc-Pro-Leu-Gly-Leu-A2pr(Dnp)-Ala-Arg-NH2 substrate, 96-well. The conditions noted are these: read-out: Human MMP2, IC50. Here is the method: In a reaction solution [50 mmol/L Tris-HCl (pH 7.5), 150 mmol/L NaCl, 10 mmol/L CaCl2, 0.05% Brij L23], 100 μg/mL human recombinant MMP2 enzyme and 1 mmol/L 4-Aminophenylmercuric acetate were mixed together, and reacted at 37° C. for 60 minutes. The human MMP2 activated through the reaction was poured into a 96-well microplate to reach a final concentration of 0.7 or 7 ng/mL.

For the next assay, the target named is human MMP13 (Homo sapiens, UniProt P45452). The assay can be described thus: Inhibitory effects on human MMP13, enzyme assay. The note with it: Test Example 8. The method, then: The human MMP13 activated through the reaction was poured into a 96-well microplate to reach a final concentration of 5 ng/mL. […] Then, MOCAc-[…] was added to reach a final concentration of 6 μmol/L, and enzymatic reaction was initiated.

Setting [1] is: Test Example No. 1-1 (Method 1, 96-well microplate).

Sequence of human MMP12 (P39900 106-470): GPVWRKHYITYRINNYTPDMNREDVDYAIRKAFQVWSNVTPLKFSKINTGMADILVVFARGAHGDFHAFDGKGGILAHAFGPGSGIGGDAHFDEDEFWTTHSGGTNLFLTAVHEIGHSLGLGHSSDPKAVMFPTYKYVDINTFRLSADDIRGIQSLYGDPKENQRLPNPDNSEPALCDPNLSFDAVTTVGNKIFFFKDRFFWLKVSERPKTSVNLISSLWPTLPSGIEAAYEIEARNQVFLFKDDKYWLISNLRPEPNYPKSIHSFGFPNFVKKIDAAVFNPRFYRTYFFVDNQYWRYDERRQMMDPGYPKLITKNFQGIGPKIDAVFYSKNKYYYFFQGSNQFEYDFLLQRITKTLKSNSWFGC

For `COc1ccc(C(=O)Nc2ccc(S(=O)(=O)N[C@H](CC(=O)N[C@@H](CN)C(=O)N[C@@H](CC(C)C)C(=O)N(C)[C@@H](CCC(=O)O)C(=O)N3CCC[C@H]3CC(N)=O)C(=O)O)cc2)cc1` [Compound 691] ({Phenylsulfonyl(4-anisamido)-d(βAsp)}-[Dap]L[NMeE][β3hP]-NH2; N-terminus assumed), the half-inhibitory concentration (IC50) at human MMP12 is 101 nM; on MMP2 (setting [1]), 0.065 nM; on human MMP13, 142 nM.
For the molecule `CC[C@H](C)[C@@H](C(=O)N1CCC[C@H]1C(N)=O)N(C)C(=O)[C@H](CC(C)C)NC(=O)[C@H](C)NC(=O)[C@H](CC(=O)O)NC(=O)[C@H](Cc1ccccc1)N(C)C(=O)CCCNC(=O)c1ccc(Oc2ccccc2)cc1` [Compound 124] ({Benzoyl(4-OPh)-GABA}-[NMeF]DAL[NMeI]P-NH2; N-terminus assumed), the half-maximal inhibitory concentration (IC50) on MMP2 (setting [1]) was 0.31 nM.
For `CC[C@H](C)[C@@H](C(=O)N1CCC[C@H]1CC(N)=O)N(C)C(=O)[C@H](CC(C)C)NC(=O)[C@H](CCN)NC(=O)[C@H](CC(=O)O)NC(=O)[C@H](CCC(=O)O)NC(=O)CCCNC(=O)c1ccc(Oc2ccccc2)cc1` [Compound 147] ({Benzoyl(4-OPh)-GABA}-ED[Dab]L[NMeI][β3hP]-NH2; N-terminus assumed), at MMP2 (setting [1]), the 50% inhibitory concentration (IC50) came to 0.14 nM.
As to `CC[C@H](C)[C@@H](C(=O)N1CCC[C@H]1CC(N)=O)N(C)C(=O)[C@H](CC(C)C)NC(=O)[C@H](CCN)NC(=O)[C@H](CC(=O)O)NC(=O)[C@@H](NC(=O)CCCNC(=O)c1ccc(Oc2ccccc2)cc1)C(C)C` [Compound 146] ({Benzoyl(4-OPh)-GABA}-VD[Dab]L[NMeI][β3hP]-NH2; N-terminus assumed), the half-inhibitory concentration (IC50) on MMP2 (setting [1]) stood at 1.7 nM.
On the same count and under the same terms, the value for `CC(C)C[C@H](NC(=O)[C@H](CCN)NC(=O)[C@H](CC(=O)O)NC(=O)[C@H](CC(N)=O)N(C)C(=O)CCCNC(=O)c1ccc(Oc2ccccc2)cc1)C(=O)N(C)[C@@H](CCC(=O)O)C(=O)N1CCC[C@H]1CC(N)=O` [Compound 112] ({Benzoyl(4-OPh)-GABA}-[NMeN]D[Dab]L[NMeE][β3hP]-NH2; N-terminus assumed) was 0.55 nM; that for `CNC(=O)c1ccc(Oc2ccc(C(=O)NCCCCCC(=O)N[C@@H](CCCNC(=N)N)C(=O)N[C@@H](CC(=O)O)C(=O)N[C@@H](CCN)C(=O)N[C@@H](CC(C)C)C(=O)N(C)[C@@H](CCC(=O)O)C(=O)N3CCC[C@H]3CC(N)=O)cc2)cc1` [Compound 190] ({Benzoyl(4-O-C6H4-4-CONHMe)-Ahx}-RD[Dab]L[NMeE][β3hP]-NH2; N-terminus assumed) was 1.8 nM.
On the same count and under the same terms, the result for `CC[C@H](C)[C@@H](C(=O)N1CCC[C@H]1C(N)=O)N(C)C(=O)[C@H](CC(C)C)NC(=O)[C@H](C)NC(=O)[C@H](CC(=O)O)NC(=O)[C@H](C(C)C)N(C)C(=O)CCCNC(=O)c1ccc(Oc2ccccc2)cc1` [Compound 119] ({Benzoyl(4-OPh)-GABA}-[NMeV]DAL[NMeI]P-NH2; N-terminus assumed) reads 0.17 nM.
As to `CSCC[C@@H](C(=O)N1CCC[C@H]1C(N)=O)N(C)C(=O)[C@H](CC(C)C)NC(=O)[C@H](C)NC(=O)[C@H](CC(=O)O)NC(=O)[C@H](CC(N)=O)NC(=O)CCCNS(=O)(=O)c1ccc(C#Cc2ccc(C)cc2)s1` [Compound 588] ({X13-GABA}-NDAL[NMeM]P-NH2; N-terminus assumed), at MMP2 (setting [1]), the IC50 turned out to be 0.12 nM.
As for `CC[C@H](C)[C@@H](C(=O)N1CCC[C@H]1CC(N)=O)N(C)C(=O)[C@@H]1CCCCNC(=O)CNC(=O)CC[C@H](NC(=O)CCCNS(=O)(=O)c2ccc(Oc3ccccc3)cc2)C(=O)N[C@@H](CC(=O)O)C(=O)N[C@@H](C)C(=O)N1` [Compound 892, [(2S,5S,8S,20S)-8-[{(2S,3S)-1-[(2S)-2-(2-amino-2-oxoethyl)pyrrolidin-1-yl]-3-methyl-1-oxopentan-2-yl}(methyl)carbamoyl]-5-methyl-3,6,14,17,21-pentaoxo-20-{4-[(4-phenoxybenzene-1-sulfonyl)amino]butanamido}-1,4,7,13,16-pentaazacyclohenicosan-2-yl]acetic acid] ({Benzenesulfonyl(4-OPh)-GABA}-EDAK[NMeI][β3hP]-NH2; linker 1-4 via G), the half-inhibitory concentration (IC50) on MMP2 (Test Example No. 1-1 (Method 1, 96-well)) was 1.7 nM.
`CNC(=O)c1ccc(Oc2ccc(C(=O)NCCCC(=O)N[C@@H](CC(N)=O)C(=O)N[C@@H](CC(=O)O)C(=O)N[C@@H](C)C(=O)N[C@@H](CC(C)C)C(=O)N[C@@H](CCSC)C(=O)N3CCC[C@H]3C(N)=O)cc2)cc1` [Compound 177, N^2-(4-{4-[4-(methylcarbamoyl)phenoxy]benzamido}butanoyl)-L-asparaginyl-L-α-aspartyl-L-alanyl-L-leucyl-L-methionyl-L-prolinamide] ({Benzoyl(4-O-C6H4-4-CONHMe)-GABA}-NDALMP-NH2): the 50% inhibitory concentration (IC50) at MMP2 (setting [1]) worked out at 0.21 nM.
As for `CC[C@H](C)[C@@H](C(=O)N1CCC[C@H]1CC(N)=O)N(C)C(=O)[C@H](CC(C)C)NC(=O)[C@H](CCN)NC(=O)[C@H](CC(=O)O)NC(=O)[C@H](CCCNC(=N)N)NC(=O)CCCCCNC(=O)c1ccc(Oc2ccc(C(=O)NC)cc2)cc1` [Compound 191] ({Benzoyl(4-O-C6H4-4-CONHMe)-Ahx}-RD[Dab]L[NMeI][β3hP]-NH2; N-terminus assumed), on MMP2 (setting [1]), the IC50 was determined as 2.7 nM.
On the same count and under the same terms, the value for `CC[C@H](C)[C@@H](C(=O)N1CCC[C@H]1CC(N)=O)N(C)C(=O)[C@H](CC(C)C)NC(=O)[C@H](CCN)NC(=O)[C@H](CC(=O)O)NC(=O)[C@H](CC(N)=O)N(C)C(=O)CCCNC(=O)c1ccc(Oc2ccccc2)cc1` [Compound 110] ({Benzoyl(4-OPh)-GABA}-[NMeN]D[Dab]L[NMeI][β3hP]-NH2; N-terminus assumed) was 0.37 nM; that for `CC[C@H](C)[C@@H](C(=O)N1CCC[C@H]1CC(N)=O)N(C)C(=O)[C@H](CC(C)C)NC(=O)[C@H](CCN)NC(=O)CC[C@@H](NS(=O)(=O)c1ccc(NC(=O)c2ccc(OC3CC3)cc2)cc1)C(=O)O` [Compound 700] ({X3-d(γGlu)}-[Dab]L[NMeI][β3hP]-NH2; N-terminus assumed) was 0.41 nM.
In the case of `CC[C@H](C)[C@@H](C(=O)N1CCC[C@H]1CC(N)=O)N(C)C(=O)[C@H](CC(C)C)NC(=O)[C@H](C)NC(=O)C[C@@H](NS(=O)(=O)c1ccc(-c2ccc(C(C)=O)cc2)cc1)C(=O)O` [Compound 634, N^2-(4′-acetyl[1,1′-biphenyl]-4-sulfonyl)-N-[(2S)-1-({(2S)-1-[{(2S,3S)-1-[(2S)-2-(2-amino-2-oxoethyl)pyrrolidin-1-yl]-3-methyl-1-oxopentan-2-yl}(methyl)amino]-4-methyl-1-oxopentan-2-yl}amino)-1-oxopropan-2-yl]-D-asparagine] ({X15-d(βAsp)}-AL[NMeI][β3hP]-NH2), at MMP2 (setting [1]), the IC50 is 0.13 nM.
Same read-out and setting: the value for `CC[C@H](C)[C@@H](C(=O)N1CCC[C@H]1C(N)=O)N(C)C(=O)[C@H](CC(C)C)NC(=O)[C@H](C)NC(=O)[C@H](CC(=O)O)NC(=O)[C@H](C)N(C)C(=O)CCCN(C)C(=O)c1ccc(Oc2ccccc2)cc1` [Compound 100] ({Benzoyl(4-OPh)}-[NMeGABA][NMeA]DAL[NMeI]P-NH2; N-terminus assumed) was 1.2 nM; that for `CC(C)C[C@H](NC(=O)[C@H](CCN)NC(=O)[C@H](CC(=O)O)NC(=O)[C@H](CCC(N)=O)NC(=O)[C@@H](N)CCCNC(=O)c1ccc(Oc2ccc(C(N)=O)cc2)cc1)C(=O)N(C)[C@H](C(=O)NC[C@@H](N)C(N)=O)C(C)C` [Compound 536] (H-[Orn](Benzoyl(4-OPh(4-CONH2)))QD[Dab]L[NMeV]-X18) was 0.35 nM.
For `CC[C@H](C)[C@@H](C(=O)N1CCC[C@H]1C(N)=O)N(C)C(=O)[C@H](CC(C)C)NC(=O)[C@H](C)NC(=O)[C@H](CC(=O)O)NC(=O)[C@H](CC(=O)O)N(C)C(=O)CCCNC(=O)c1ccc(Oc2ccccc2)cc1` [Compound 125] ({Benzoyl(4-OPh)-GABA}-[NMeD]DAL[NMeI]P-NH2), the IC50 at MMP2 (setting [1]) stood at 0.47 nM.
With `CCNC(=O)c1ccc(Oc2ccc(C(=O)NCCCCC(=O)N[C@@H](CCCNC(=N)N)C(=O)N[C@@H](CC(=O)O)C(=O)N[C@@H](CCN)C(=O)N[C@@H](CC(C)C)C(=O)N(C)[C@H](C(=O)N3CCC[C@H]3CC(N)=O)[C@@H](C)CC)cc2)cc1` [Compound 197] ({Benzoyl(4-(4-EtNHCO-PhO))-Ava}-RD[Dab]L[NMeI][β3hP]-NH2; N-terminus assumed), the IC50 on MMP2 (setting [1]) was determined as 2.6 nM.
For the molecule `CC(C)C[C@H](NC(=O)[C@H](CCN)NC(=O)[C@H](CC(=O)O)NC(=O)[C@H](CCCN)NC(=O)CCCNC(=O)c1ccc(Oc2ccccc2)cc1)C(=O)N(C)[C@@H](CCC(=O)O)C(=O)N1CCC[C@H]1CC(N)=O` [Compound 145] ({Benzoyl(4-OPh)-GABA}-[Orn]D[Dab]L[NMeE][β3hP]-NH2; N-terminus assumed), the IC50 at MMP2 (setting [1]) amounted to 0.72 nM.
